The source of these data is US20200352912A1, “ANTIMICROBIAL COMPOSITIONS AND METHODS OF USING THE SAME” (The Board Of Supervisors Of Louisiana State University And …, priority 2018, published 2020).

Structures are written as SMILES. pKi: −log10 of the molar value.

In assay [1] the test system is S. aureus pre-formed mono-species biofilm. Put plainly: pre-formed mature biofilm (XTT, CFU). It counts as cell-based, Staphylococcus aureus. The protocol:
The effect of L-161, 982 on pre-formed mature biofilms was tested. Mono- and dual-species C. albicans and/or S. aureus biofilms were grown on 96-well plates for 24 h before being treated with the indicated concentration of L-161, 982 for a further 24 h. After treatment, metabolic activity of biofilms was quantified by the XTT assay (A) and then biofilms were disrupted to determine live colony forming units (CFU) (B). The results are cumulative of three independent experiments with duplicate samples. Statistics were performed using One-way ANOVA with the Tukey post-hoc test for the XTT assay. The Mann-Whitney U test was used to analyze CFU data. Significance is indicated as follows: ns—not significant, *P<0.05; *** P<0.001. Error bars represent standard deviation.
Following growth as described above, microbes were washed in phosphate-buffered saline (PBS) by centrifugation, counted on a hemocytometer, and adjusted to 2×10^7 CFU/ml in RPMI buffered with MOPS (165 mM). For monomicrobial biofilms, 50 μl of adjusted C. albicans or S. aureus culture was added to each well of a sterile 96-well cell culture polystyrene microtiter plate (1×10^6 CFU per well); to this, 50 μl of sterile RPMI+MOPS was added. For polymicrobial biofilms, 50 μl of each organism was added per well (1×10^6 CFU of each organism per well). Plates were incubated for 24 h at 37° C. to induce biofilm formation. Following confirmation of mature biofilm growth by macro- and microscopic examination, plates were washed once with 200 μl sterile saline and then 200 μl RPMI+MOPS containing L-161, 982 at various concentrations (6.25-200 μg/ml) added to each well. […]
The XTT reduction assay was used to determine the metabolic activity of biofilms following treatment with L-161, 982 (17). Briefly, wells were washed once in PBS, and plates incubated at 37° C. for 2 h with 200 μl XTT working reagent (0.5 mg/ml XTT and 1 μM Menadione) and the resulting absorbance measured at 490 nm on a microplate spectrophotometer. […]
For orientation: Tetrazolium assays rely on reduction of a dye to a coloured formazan, in cell work by metabolically active cells.

A further assay concerns S. aureus. Put plainly: cytoplasmic leakage assay (OD260). In kind it is cell-based, Staphylococcus aureus. The note with it: 50 μg/ml. The method, then: S. aureus was grown shaking at 37° C. in PBS alone, with 50 μg/ml L-161, 982 or with 4 μg/ml Chlorhexidine (positive control). The appearance of nucleic acid in culture supernatants was measured by OD260 at the indicated times. Data are expressed as change in absorbance at 260 nm compared to control (AA260). Data presented is cumulative of two independent experiments.
Cytoplasmic leakage assay. Cytoplasmic leakage assays were performed as previously described with modifications (11). Briefly, S. aureus was cultured to mid-log phase in TSB with shaking at 37° C. Bacteria were then harvested and resuspended in PBS to a concentration of ˜108/ml. Cultures were treated with L-161,982 (50 μg/ml) or Chlorhexidine (4 μg/ml), a positive control, and incubated at 37° C. with shaking. Culture supernatants were monitored over time for cytoplasmic leakage via OD260 measurements using a spectrophotometer (Biomate 3S, Thermo Scientific). For this, aliquots were removed at 0.5, 1, 2, and 3 hours and centrifuged for 5 min at 10,000×g at room temperature to remove cellular debris before taking OD260 measurements. Negative control cultures containing no drug were used to calculate change in absorbance (AA260) at each time point.

The subject of another assay is MRSA. Put plainly: checkerboard broth microdilution synergy test with oxacillin. In kind it is cell-based, Staphylococcus aureus. The note with it: combination with oxacillin. The protocol: Due to the newfound antimicrobial activity of L-161, 982 against S. aureus, the checkerboard method (14) with the broth microdilution method, was used to test for synergy with oxacillin, a drug similar to methicillin used more commonly in the clinical setting. Synergy was determined using the fractional inhibitory concentration index (FICI) method (14, 15). With this method, the MIC of the antibiotic compound in combination is divided by the MIC of the compound alone, giving the fractional contribution of each drug component in combination. Quotients for all compounds in combination are summed and drug interactions scored using the formula:
FICI=((MIC AcombA+B)/MICA)+((MIC BcombA+B)/MICB)
The stock solutions and serial twofold dilutions of oxacillin ranged from 8× the MIC to 32× below the MIC and that of L-161, 982 ranged from 8× the MIC to 2000× below the MIC. Oxacillin was serially diluted along the ordinate, while L-161, 982 was diluted along the abscissa. The resulting checkerboard contained each combination of two drugs, with wells that contain the highest concentration of each antibiotic at opposite corners. Each microtiter well was inoculated with 1×10^5 CFU. The plates were incubated at 37° C. for 24 h and the OD600 measured using a microplate spectrophotometer. […]
In general terms: In broth dilution the organism is exposed to a series of concentrations in liquid medium.

The target in the next assay is EP1 (Homo sapiens, UniProt P34995). To be noted: cited from earlier work.
Sequence of EP1 (P34995 whole entry): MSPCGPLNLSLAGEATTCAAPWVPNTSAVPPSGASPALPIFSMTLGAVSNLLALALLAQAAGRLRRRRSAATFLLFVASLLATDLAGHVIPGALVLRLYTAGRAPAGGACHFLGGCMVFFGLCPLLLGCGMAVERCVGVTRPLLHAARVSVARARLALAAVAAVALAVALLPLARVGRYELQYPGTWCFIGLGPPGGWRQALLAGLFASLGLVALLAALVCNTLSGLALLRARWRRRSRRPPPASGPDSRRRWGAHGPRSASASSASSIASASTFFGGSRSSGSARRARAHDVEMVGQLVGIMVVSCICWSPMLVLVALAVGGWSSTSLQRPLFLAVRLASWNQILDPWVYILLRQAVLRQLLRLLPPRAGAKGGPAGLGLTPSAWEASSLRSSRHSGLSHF
In assay [2] the test system is PGE2-stimulated bone formation. The note with it: 10 mg/kg/day, young rats; cited from earlier work.
Another assay deals with planktonic S. aureus. Put plainly: MIC/MBC assay (CLSI broth dilution). To be noted: Staphylococcus aureus. It counts as cell-based. The protocol:
The CLSI reference method for broth dilution antimicrobial susceptibility testing of bacteria was used to determine the MIC of L-161, 982 (CLSI, 2008). Based on inhibition of S. aureus in the planktonic assay, TSB was used for all antimicrobial susceptibility testing of S. aureus. Cells were diluted in sterile TSB to a final concentration of 5.0×10^5 CFU/ml and 200-μl aliquots (1×10^5 CFU/well) were added to wells of sterile round-bottom 96-well plates. A stock solution of L-161, 982 was diluted in sterile TSB prior to addition to cells. Drug concentrations tested ranged from 1 to 100 μg/ml and were tested in triplicate. The plates were incubated at 37° C. for 24 h and the OD600 measured using a microplate spectrophotometer (BioTek Instruments, Synergy 2). Bacteriostatic or bactericidal activity was assessed by plating 20 μl of broth from all wells with no visible growth on TSA plates and plates incubated at 37° C. for 24-48 h. The MBC was the lowest drug concentration that prevented growth.

A word on the pKi: it is −log10 of the Ki, conventionally taken in molar units. As a reminder, the MBC is the smallest concentration meeting the test's criterion for killing. Consider `CCCCc1nn(-c2ccccc2C(F)(F)F)c(=O)n1Cc1ccc(-c2ccccc2S(=O)(=O)NC(=O)c2sccc2C)cc1` [L-161, 982, N-[[4′-[[3-Butyl-1,5-dihydro-5-oxo-1-[2-(trifluoromethyl)phenyl]-4H-1,2,4-triazol-4-yl]methyl][1,1′-biphenyl]-2-yl]sulfonyl]-3-methyl-2-thiophenecarboxamide], for which the “concentration required to weaken pre-formed mature biofilms” value in assay [1] amounted to 100 µg/mL. In assay [1] (100 and 200 μg/ml), the “CFUs recovered from pre-formed biofilm” value is “no CFUs were recovered”. The “metabolic activity of pre-formed biofilm” value in assay [1] (all concentrations tested, 24 h treatment) was “no significant inhibitory effects”. Further, the “OD260 values of culture supernatants” value in the assay on S. aureus is recorded as “did not increase”. Moreover, the “fractional inhibitory concentration (FIC) index” value in the assay on MRSA was 0.563. At EP1, the pKi is 4.77. Besides, the “effect on PGE2-stimulated bone formation” value in assay [2] is “suppresses”. The MBC in the assay on planktonic S. aureus was 100 mg/L. The MIC in the assay on planktonic S. aureus (TSB, 24 h, read-out: minimum inhibitory concentration (MIC)) is 50 mg/L.
